US20200179428A1, “CYCLIC PHOSPHATE SUBSTITUTED NUCLEOSIDE DERIVATIVES AND METHODS OF USE THEREOF FOR THE TREATMENT OF VIRAL DISEASES” (priority 2016, published 2020)
Where two headings read alike, the source gives them in different places.

Key:
replicon cells (1b-Con1) = experiment: Replicon activity assay (replicon RNA level by real-time RT-PCR, Taqman); type: cell-based; conditions: HCV replicon genotype 1b, read-out: EC50 (1b) Range
Experimental: (§1) To measure cell-based anti-HCV activity of the compounds of the present invention, replicon cells (1b-Con1) are seeded at 5000 cells/well in 96-well plates one day prior to treatment with a compound of the invention. Various concentrations of a test compound of the invention in DMSO are then added to the replicon cells, with the final concentration of DMSO at 0.5% and fetal bovine serum at 10% in the assay media. Cells are harvested three days post-dosing, and the replicon RNA level is determined using real-time RT-PCR (Taqman assay) with GAPDH RNA as endogenous control. EC50 values are calculated from experiments with 10 serial twofold dilutions of the inhibitor in triplicate. To measure cytotoxicity in replicon cells of an inhibitor, an MTS assay is performed according to the manufacturer's protocol for CellTiter 96 Aqueous One Solution Cell Proliferation Assay (Promega, Cat # G3580) three days post dosing on cells treated identically as in replicon activity assays. […] Cytotoxicity in other types of cells may be measured using the same MTS protocol.

[1] = Cytotoxicity MTS assay (CellTiter 96 Aqueous One Solution) in replicon cells; type: cell-based; conditions: EDU, read-out: CC50 (EDU) Range; for CC50 at 3 days: HCV replicon cells (1b-Con1)
Experimental: as §1

Row | SMILES | EC50 (replicon cells (1b-Con1); Hepatitis C virus) [µM] | CC50 at 3 days [1] [µM] | EC50 (replicon cells (1b-Con1)) [µM] | CC50 [1] [µM]
1 | CC(C)OC(=O)CC(F)(F)CO[P@@]1(=O)OC[C@H]2O[C@@H](n3ccc(=O)[nH]c3=O)[C@](C)(N)[C@@H]2O1 [Compound 49A] | > 10 | > 50 | – | –
2 | C#C[C@]1(C)[C@@H]2O[P@@](=O)(OCCOCC(=O)OC(C)C)OC[C@H]2O[C@H]1n1ccc(=O)[nH]c1=O [Compound 68A] | > 10 | > 50 | – | –
3 | CC(C)OC(=O)C(C)(C)CO[P@@]1(=O)OC[C@H]2O[C@@H](n3ccc(=O)[nH]c3=O)[C@](C)(C#N)[C@@H]2O1 [Compound 16A] | > 10 | > 50 | – | –
4 | CO[C@@H](CO[P@@]1(=O)OC[C@H]2O[C@@H](n3ccc(=O)[nH]c3=O)[C@](C)(N)[C@@H]2O1)CC(=O)OC(C)C [Compound 63A] | > 10 | > 50 | – | –
5 | C[C@@]1(N)[C@@H]2O[P@@](=O)(OCCC3CCOC3=O)OC[C@H]2O[C@H]1n1ccc(=O)[nH]c1=O (stereo partly drawn) [Compound 46A] | > 10 | > 50 | – | –
6 | CC(C)OC(=O)C(CCOP1(=O)OC[C@H]2O[C@@H](n3ccc(=O)[nH]c3=O)[C@](C)(Cl)[C@@H]2O1)C(=O)OC(C)C (stereo partly drawn) [Compound 38A] | ≤ 0.25 | > 50 | – | –
7 | C#C[C@]1(C)[C@@H]2O[P@](=O)(OCCC(C)(C)C(=O)OC(C)C)OC[C@H]2O[C@H]1n1ccc(=O)[nH]c1=O [Compound 20B] | > 10 | > 50 | – | –
8 | CC(C)OC(=O)[C@@H](C)CCO[P@]1(=O)OC[C@H]2O[C@@H](n3cnc4c(N)ncnc43)[C@](C)(N)[C@@H]2O1 [Compound 73B] | 1 to 10 | > 50 | – | –
9 | CC(CCO[P@]1(=O)OC[C@H]2O[C@@H](n3ccc(=O)[nH]c3=O)[C@](C)(N)[C@@H]2O1)C(=O)OC1CCCCC1 (stereo partly drawn) [Compound 78B] | 1 to 10 | > 50 | – | –
10 | C#C[C@]1(C)[C@@H]2O[P@](=O)(OCCC(CC)C(=O)OC3CCCC3)OC[C@H]2O[C@H]1n1ccc(=O)[nH]c1=O (stereo partly drawn) [Compound 30B] | > 10 | > 50 | – | –
11 | CC(C)OC(=O)CC(C)(C)CO[P@]1(=O)OC[C@H]2O[C@@H](n3ccc(=O)[nH]c3=O)[C@](C)(N)[C@@H]2O1 [Compound 17B] | > 10 | > 50 | – | –
12 | CC(CCO[P@@]1(=O)OC[C@H]2O[C@@H](n3ccc(=O)[nH]c3=O)[C@](C)(N)[C@@H]2O1)CC(=O)OC(C)C (stereo partly drawn) [Compound 21A] | > 10 | > 50 | – | –
13 | CC(CCOP1(=O)OC[C@H]2O[C@@H](n3ccc(=O)[nH]c3=O)[C@](C)(N)[C@@H]2O1)C(=O)OC1CCCC1 (single isomer, unassigned) [Compound 14A1] | – | > 50 | > 10 | –
14 | C#C[C@@]1(O)[C@@H]2O[P@](=O)(OCCC(C(=O)OC(C)C)C(=O)OC(C)C)OC[C@H]2O[C@H]1n1ccc(=O)[nH]c1=O [Compound 59B] | ≤ 0.25 | > 50 | – | –
15 | CC(C)OC(=O)CS(=O)(=O)CCO[P@@]1(=O)OC[C@H]2O[C@@H](n3ccc(=O)[nH]c3=O)[C@](C)(N)[C@@H]2O1 [Compound 58A] | > 10 | < 50 | – | –
16 | CC(C)OC(=O)C(CCO[P@]1(=O)OC[C@H]2O[C@@H](n3ccc(=O)[nH]c3=O)[C@](C)(N)[C@@H]2O1)c1ccccc1 (stereo partly drawn) [Compound 33B] | > 10 | > 50 | – | –
17 | C#C[C@]1(C)[C@@H]2O[P@@](=O)(OCC(CC(=O)OC(C)C)N(C)C(=O)OC(C)(C)C)OC[C@H]2O[C@H]1n1ccc(=O)[nH]c1=O (stereo partly drawn) [Compound 74A1] | > 10 | > 50 | – | –
18 | C#C[C@]1(C)[C@@H]2O[P@@](=O)(OCC[C@H](OC(C)=O)C(=O)OC(C)C)OC[C@H]2O[C@H]1n1ccc(=O)[nH]c1=O [Compound 51A] | 1 to 10 | > 50 | – | –
19 | C#C[C@]1(C)[C@@H]2O[P@](=O)(OCC(CC(=O)OC(C)C)N(C)C(=O)OC(C)(C)C)OC[C@H]2O[C@H]1n1ccc(=O)[nH]c1=O (stereo partly drawn) [Compound 74B] | > 10 | > 50 | – | –
20 | CCCCCOC(=O)C(C)CCO[P@]1(=O)OC[C@H]2O[C@@H](n3ccc(=O)[nH]c3=O)[C@](C)(N)[C@@H]2O1 (stereo partly drawn) [Compound 79B] | 1 to 10 | > 50 | – | –
21 | CC(C)OC(=O)C(C)(C)CO[P@@]1(=O)OC[C@H]2O[C@@H](n3ccc(=O)[nH]c3=O)[C@](C)(N)[C@@H]2O1 [Compound 15A] | > 10 | > 50 | – | –
22 | CC(C)OC(=O)[C@@H](C)CCO[P@@]1(=O)OC[C@H]2O[C@@H](n3cnc4c(N)ncnc43)[C@](C)(N)[C@@H]2O1 [Compound 73A] | > 10 | > 50 | – | –
23 | C#C[C@]1(C)[C@@H]2O[P@@](=O)(OCCC(C)(C)C(=O)OC(C)C)OC[C@H]2O[C@H]1n1ccc(=O)[nH]c1=O [Compound 20A] | > 10 | > 50 | – | –

Row | SMILES | EC50 (replicon cells (1b-Con1); Hepatitis C virus) [µM] | CC50 at 3 days [1] [µM] | EC50 (replicon cells (1b-Con1)) [µM] | CC50 [1] [µM]
24 | CC(C)OC(=O)C(C)(C)CO[P@]1(=O)OC[C@H]2O[C@@H](n3ccc(=O)[nH]c3=O)[C@](C)(C#N)[C@@H]2O1 [Compound 16B] | > 10 | > 50 | – | –
25 | COC(=O)N[C@@H](CCO[P@@]1(=O)OC[C@H]2O[C@@H](n3ccc(=O)[nH]c3=O)[C@](C)(N)[C@@H]2O1)C(=O)OC(C)C [Compound 42A] | > 10 | > 50 | – | –
26 | C#C[C@]1(C)[C@@H]2O[P@](=O)(OC[C@@H](CC(=O)OC(C)C)OC)OC[C@H]2O[C@H]1n1ccc(=O)[nH]c1=O [Compound 62B] | > 10 | > 50 | – | –
27 | C#C[C@]1(C)[C@@H]2O[P@@](=O)(OCCC(C(=O)OC(C)C)C(C)C)OC[C@H]2O[C@H]1n1ccc(=O)[nH]c1=O (stereo partly drawn) [Compound 32A] | > 10 | > 50 | – | –
28 | C#C[C@]1(C)[C@@H]2O[P@@](=O)(OCC[C@H](OC)C(=O)OC(C)C)OC[C@H]2O[C@H]1n1ccc(=O)[nH]c1=O [Compound 56A] | 0.25 to 1 | > 50 | – | –
29 | CO[C@H](CO[P@]1(=O)OC[C@H]2O[C@@H](n3ccc(=O)[nH]c3=O)[C@](C)(N)[C@@H]2O1)[C@@H](OC)C(=O)OC(C)C [Compound 48B] | > 10 | > 50 | – | –
30 | CC(C)OC(=O)CC(F)(F)CO[P@]1(=O)OC[C@H]2O[C@@H](n3ccc(=O)[nH]c3=O)[C@](C)(N)[C@@H]2O1 [Compound 49B] | 1 to 10 | < 50 | – | –
31 | CC(C)OC(=O)C(C)CCCO[P@]1(=O)OC[C@H]2O[C@@H](n3ccc(=O)[nH]c3=O)[C@](C)(N)[C@@H]2O1 (stereo partly drawn) [Compound 34B] | > 10 | > 50 | – | –
32 | C#C[C@]1(C)[C@@H]2O[P@](=O)(OCC(C)(C)CC(=O)OC(C)C)OC[C@H]2O[C@H]1n1ccc(=O)[nH]c1=O [Compound 18B] | > 10 | > 50 | – | –
33 | CO[C@@H](CO[P@]1(=O)OC[C@H]2O[C@@H](n3ccc(=O)[nH]c3=O)[C@](C)(N)[C@@H]2O1)CC(=O)OC(C)C [Compound 63B] | > 10 | > 50 | – | –
34 | C#C[C@@]1(OC(=O)CCCCCC)[C@@H]2O[P@@](=O)(OCC[C@@H](C)C(=O)OC(C)C)OC[C@H]2O[C@H]1n1ccc(=O)[nH]c1=O [Compound 84A1] | ≤ 0.25 | > 50 | – | –
35 | CC(C)OC(=O)[C@@H](C)CCO[P@]1(=O)OC[C@H]2O[C@@H](n3cnc4c(N)ncnc43)[C@](C)(C#N)[C@@H]2O1 [Compound 71B] | 1 to 10 | > 50 | – | –
36 | CC(C)OC(=O)COCCO[P@@]1(=O)OC[C@H]2O[C@@H](n3ccc(=O)[nH]c3=O)[C@](C)(N)[C@@H]2O1 [Compound 69A] | > 10 | > 50 | – | –
37 | C#C[C@]1(C)[C@@H]2O[P@](=O)(OC[C@@H](F)CC(=O)OC(C)C)OC[C@H]2O[C@H]1n1ccc(=O)[nH]c1=O [Compound 64B] | 0.25 to 1 | > 50 | – | –
38 | C#C[C@]1(C)[C@@H]2OP(=O)(OCC(C)CC(=O)OC3CCCC3)OC[C@H]2O[C@H]1n1ccc(=O)[nH]c1=O (single isomer, unassigned) [Compound 3A] | – | > 50 | > 10 | –
39 | C#C[C@@]1(O)[C@@H]2OP(=O)(OCCC(C)C(=O)OC(C)C)OC[C@H]2O[C@H]1n1ccc(=O)[nH]c1=O (stereo partly drawn) [Compound 7A] | 0.25 to 1 | – | – | > 50
40 | CC(C)OC(=O)[C@H](C)CCOP1(=O)OC[C@@]2(F)O[C@@H](n3ccc(=O)[nH]c3=O)[C@](C)(O)[C@@H]2O1 (stereo partly drawn) [Compound 86A] | 1 to 10 | > 50 | – | –
41 | C#C[C@]1(C)[C@@H]2OP(=O)(OCCC(C(=O)OC(C)C)C(=O)OC(C)C)OC[C@H]2O[C@H]1n1ccc(=O)[nH]c1=O (single isomer, unassigned) [Compound 36A] | – | > 50 | 0.25 to 1 | –
42 | CC(C)OC(=O)C[C@H](F)CO[P@@]1(=O)OC[C@H]2O[C@@H](n3ccc(=O)[nH]c3=O)[C@](C)(N)[C@@H]2O1 [Compound 65A] | > 10 | > 50 | – | –
43 | CCOC(=O)C1(CCO[P@@]2(=O)OC[C@H]3O[C@@H](n4ccc(=O)[nH]c4=O)[C@](C)(N)[C@@H]3O2)CC1 [Compound 28A] | > 10 | > 50 | – | –
44 | CC(C)OC(=O)C(CCO[P@]1(=O)OC[C@H]2O[C@@H](n3cnc4c(N)ncnc43)[C@](C)(Cl)[C@@H]2O1)C(=O)OC(C)C [Compound 70B] | 1 to 10 | > 50 | – | –
45 | C#C[C@@]1(O)[C@@H]2OP(=O)(OCC[C@H](C)C(=O)OC3CCCC3)OC[C@H]2O[C@H]1n1ccc(=O)[nH]c1=O (single isomer, unassigned) [Compound 8A1] | 0.25 to 1 | > 50 | – | –
